# Experimental data reported in the Kinase Knowledgebase extract (Sharma et al. 2016).
# Biological target: EGFR (UniProt P00533)
# Sequence (P00533 whole entry, looked up): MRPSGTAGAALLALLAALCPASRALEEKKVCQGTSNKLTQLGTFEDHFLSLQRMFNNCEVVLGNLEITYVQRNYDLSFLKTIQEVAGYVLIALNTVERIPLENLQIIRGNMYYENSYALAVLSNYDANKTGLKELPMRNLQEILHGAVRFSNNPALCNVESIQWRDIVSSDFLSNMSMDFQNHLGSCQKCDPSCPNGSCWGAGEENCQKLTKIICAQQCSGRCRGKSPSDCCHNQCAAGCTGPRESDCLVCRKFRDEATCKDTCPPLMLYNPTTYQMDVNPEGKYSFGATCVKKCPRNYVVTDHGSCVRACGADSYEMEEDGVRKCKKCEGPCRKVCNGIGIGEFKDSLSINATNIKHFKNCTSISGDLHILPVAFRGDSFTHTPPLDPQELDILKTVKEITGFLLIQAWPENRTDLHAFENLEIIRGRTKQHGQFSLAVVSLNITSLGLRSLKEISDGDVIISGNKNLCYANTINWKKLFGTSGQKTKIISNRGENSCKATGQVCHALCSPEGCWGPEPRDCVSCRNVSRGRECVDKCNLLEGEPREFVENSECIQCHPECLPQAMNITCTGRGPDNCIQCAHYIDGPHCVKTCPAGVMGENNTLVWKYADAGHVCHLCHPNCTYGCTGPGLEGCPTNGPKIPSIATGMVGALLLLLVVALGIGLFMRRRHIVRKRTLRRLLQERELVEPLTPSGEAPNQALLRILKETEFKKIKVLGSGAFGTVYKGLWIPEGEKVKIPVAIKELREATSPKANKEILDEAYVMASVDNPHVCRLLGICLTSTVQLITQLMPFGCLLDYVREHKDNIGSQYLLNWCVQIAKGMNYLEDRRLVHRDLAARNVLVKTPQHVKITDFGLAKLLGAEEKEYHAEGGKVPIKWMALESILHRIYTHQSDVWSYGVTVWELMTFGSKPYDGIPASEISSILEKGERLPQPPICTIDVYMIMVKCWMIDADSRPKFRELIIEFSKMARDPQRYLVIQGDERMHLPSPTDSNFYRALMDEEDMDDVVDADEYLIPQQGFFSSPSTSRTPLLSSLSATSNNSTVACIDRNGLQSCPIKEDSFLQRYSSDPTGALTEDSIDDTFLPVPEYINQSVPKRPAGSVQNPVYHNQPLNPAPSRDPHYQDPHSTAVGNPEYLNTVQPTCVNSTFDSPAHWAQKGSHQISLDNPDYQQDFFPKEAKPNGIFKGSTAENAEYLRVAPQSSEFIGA
row,IC50 [µg/mL],Compound
1,> 4.5,COC(=O)c1sccc1Nc1ncnc(Nc2cc(OC)c(OC)c(OC)c2)n1
2,0.4 to 2.4,COc1ccc(Nc2ncnc(Nc3ccc(N4CCCCC4)cc3)n2)cc1OC
3,0.4 to 2.4,COc1cc(Nc2ncnc(Nc3ccc4c(c3)OCO4)n2)cc(OC)c1OC
4,> 4.5,COc1cc(Nc2ncnc(-n3c(N(C)C)nc4ccccc43)n2)cc(OC)c1OC
5,2.4 to 3.5,COc1cc(Nc2ncnc(-n3c(N[C@@H](C)c4ccccc4)nc4ccccc43)n2)cc(OC)c1OC
6,> 4.5,O=c1[nH]c2ccccc2n1-c1ncnc(Nc2ncccn2)n1
7,> 4.5,COC(=O)c1ccc(-c2cc(Nc3ncnc(NCc4ccco4)n3)[nH]n2)cc1
8,3.5 to 4.5,Nc1ncnc(Nc2ccc3c(c2)OCO3)n1
9,> 4.5,COc1cc(Nc2ncnc(N3CCc4ccccc4C3)n2)cc(OC)c1OC
10,< 0.4,Cc1cccc(Nc2ncnc(Nc3ccc4c(cnn4Cc4ccccc4)c3)n2)c1
11,< 0.4,COc1cc(Nc2ncnc(Nc3ccc4[nH]ncc4c3)n2)cc(OC)c1OC
12,> 4.5,COc1cc(Nc2ncnc(-c3ccc(NCCCN)nc3)n2)cc(OC)c1OC
13,< 0.4,COc1cc(Nc2ncnc(Nc3cc(Cl)ccc3C)n2)cc(OC)c1OC
14,> 4.5,O=c1[nH]c2ccccc2n1-c1ncnc(Nc2ccc(C(F)(F)F)cc2)n1
15,2.4 to 3.5,COC(=O)c1ccc(-c2cc(Nc3ncnc(NCc4cccs4)n3)[nH]n2)cc1
16,0.4 to 2.4,O=c1[nH]c2ccccc2n1-c1ncnc(Nc2ccccc2Cl)n1
17,3.5 to 4.5,Nc1nc2ccccc2n1-c1ncnc(Nc2ccc(N3CCOCC3)cc2)n1
18,< 0.4,Cc1cccc(Nc2ncnc(Nc3ccc4[nH]ccc4c3)n2)c1
19,< 0.4,C=CCN(c1cccc(Cl)c1)c1ncnc(Nc2cc(OC)cc(OC)c2)n1
20,> 4.5,COc1cc(Nc2ncnc(-n3c(NCc4ccc5c(c4)OCO5)nc4ccccc43)n2)cc(OC)c1OC

row,IC50 [µg/mL],Compound
1,3.5 to 4.5,COc1cc(Nc2ncnc(N[C@H]3CCCc4ccccc43)n2)cc(OC)c1OC
2,< 0.4,COc1cc(Nc2ncnc(Nc3cccc(C(=O)O)c3)n2)cc(OC)c1OC
3,> 4.5,COc1cc(Nc2ncnc(-c3ccnc(NCCCO)c3)n2)cc(OC)c1OC
4,0.4 to 2.4,COc1ccc(Nc2ncnc(Nc3ccc(F)c(F)c3)n2)cc1OC
5,< 0.4,COc1cc(Nc2ncnc(Nc3cccc(Cl)c3)n2)cc(OC)c1
6,2.4 to 3.5,COc1ccc(Nc2ncnc(Nc3cc(Cl)cc(Cl)c3)n2)cc1OC
7,> 4.5,COc1cc(Nc2ncnc(-n3c(NC(C)=O)nc4ccccc43)n2)cc(OC)c1OC
8,3.5 to 4.5,COc1cc(C)c(Nc2ncnc(Nc3cc(-c4ccc(Cl)cc4)n[nH]3)n2)cc1OC
9,> 4.5,COc1cc(Nc2ncnc(-n3c(NCCCc4ccccc4)nc4ccccc43)n2)cc(OC)c1OC
10,0.4 to 2.4,Cc1ccc2c(c1)CCCN2c1ncnc(Nc2ccc(F)c(F)c2)n1
11,> 4.5,O=C(Nc1ccc(Nc2ncnc(-n3c(=O)[nH]c4ccccc43)n2)cc1)O[C@@H]1CCOC1
12,0.4 to 2.4,COc1cc(Nc2ncnc(Nc3ccc4nn(C)cc4c3)n2)cc(OC)c1OC
13,> 4.5,COc1cc(Nc2ncnc(-n3c(N)nc4cc([N+](=O)[O-])ccc43)n2)cc(OC)c1OC.COc1cc(Nc2ncnc(-n3c(N)nc4ccc([N+](=O)[O-])cc43)n2)cc(OC)c1OC
14,> 4.5,COc1cc(Nc2ncnc(Nc3[nH]ncc3-c3cccc(Cl)c3)n2)cc(OC)c1OC
15,< 0.4,CN(c1cccc(Cl)c1)c1ncnc(Nc2cccc(Cc3nnn[nH]3)c2)n1
16,> 4.5,Nc1ncnc(Nc2nc(-c3ccc(Cl)cc3)cs2)n1
17,> 4.5,COc1ccc(Nc2ncnc(Nc3ccc4c(c3)C(=O)N(C)C4=O)n2)cc1OC
18,> 4.5,COc1cc(Nc2ncnc(-c3cccnc3Nc3ccc4c(c3)CCC4)n2)cc(OC)c1OC
19,0.4 to 2.4,COc1cc(Nc2ncnc(NC3CCc4ccccc43)n2)cc(OC)c1OC (stereo not given)
20,< 0.4,COc1cc(Nc2ncnc(Nc3cccc(O)c3)n2)cc(OC)c1OC

row,IC50 [µg/mL],Compound
1,> 4.5,COc1cccc(CCNc2ncnc(Nc3ccc4c(cnn4Cc4ccccc4)c3)n2)c1OC
2,0.4 to 2.4,CNS(=O)(=O)Cc1ccc(Nc2ncnc(Nc3ccc4c(cnn4Cc4ccccc4)c3)n2)cc1
3,> 4.5,COc1ccc(Nc2ncnc(Nc3ccc(OC)c(OC)c3)n2)cc1OC
4,> 4.5,CC(=O)NS(=O)(=O)c1ccc(Nc2ncnc(-n3c(=O)[nH]c4ccccc43)n2)cc1
5,> 4.5,O=C(O)Cc1cccc(Nc2ncnc(-n3c(NCc4ccccn4)nc4ccccc43)n2)c1
6,> 4.5,COc1cc(Nc2ncnc(-n3c(Nc4ccc(C#N)cc4)nc4ccccc43)n2)cc(OC)c1OC
7,> 4.5,COc1ccc([C@@H](C)Nc2nc3ccccc3n2-c2ncnc(Nc3cc(OC)c(OC)c(OC)c3)n2)cc1
8,> 4.5,Nc1nc2ccccc2n1-c1ncnc(Nc2ccccn2)n1
9,> 4.5,c1csc(-c2ncnc(Nc3ccc4c(c3)OCO4)n2)c1
10,0.4 to 2.4,COc1cc(Nc2ncnc(Nc3ccc4c(c3)CCC4)n2)cc(OC)c1OC
11,> 4.5,COc1cccc(Nc2nc3ccccc3n2-c2ncnc(Nc3cc(OC)c(OC)c(OC)c3)n2)c1
12,< 0.4,COc1cc(Nc2ncnc(N3CCCc4cc(C)ccc43)n2)cc(OC)c1OC
13,0.4 to 2.4,O=c1[nH]c2ccccc2n1-c1ncnc(Nc2cccc(-c3cnco3)c2)n1
14,< 0.4,COc1cc(Nc2ncnc(N(C)c3ccc4c(cnn4Cc4ccccc4)c3)n2)cc(OC)c1OC
15,> 4.5,COc1cc(Nc2ncnc(-n3ccc4cc(OCc5ccccc5)ccc43)n2)cc(OC)c1OC
16,> 4.5,COc1cc(Nc2ncnc(-n3c(NC(=O)c4ccccc4)nc4ccccc43)n2)cc(OC)c1OC
17,> 4.5,COc1cc(Nc2ncnc(-c3cccnc3Nc3ccccc3C)n2)cc(OC)c1OC
18,0.4 to 2.4,Nc1nc2ccccc2n1-c1ncnc(Nc2cccc(Cl)c2)n1
19,< 0.4,COc1cc(Nc2ncnc(Nc3cc(-c4ccco4)n[nH]3)n2)cc(OC)c1OC

# The remaining lines, values behind:
row,Compound,IC50 [µg/mL]
1,Fc1ccc(CNc2ncccc2-c2ncnc(Nc3cccc(Cn4ccnc4)c3)n2)cc1,0.4 to 2.4
2,COc1cc(Nc2ncnc(N3CCN(c4ncccn4)CC3)n2)cc(OC)c1OC,> 4.5
3,c1ccc(COc2cccc(Nc3ncnc(-c4cccs4)n3)c2)cc1,> 4.5
4,COc1cc(Nc2ncnc(N(C)c3cccc(Cl)c3)n2)cc2ccccc12,< 0.4
5,CC(=O)NS(=O)(=O)c1ccc(Nc2ncnc(N(C)c3cccc(Cl)c3)n2)cc1,< 0.4
6,COc1cc(Nc2ncnc(-c3cccnc3NCc3ccccc3OC(F)(F)F)n2)cc(OC)c1OC,> 4.5
7,COc1cc(Nc2ncnc(-n3cc(CCO)c4ccccc43)n2)cc(OC)c1OC,> 4.5
8,OCCCNc1cc(-c2ncnc(Nc3cccc(OC(F)(F)C(F)F)c3)n2)ccn1,> 4.5
9,COc1cc(Nc2ncnc(Nc3ccc4ccccc4c3)n2)cc(OC)c1OC,0.4 to 2.4
10,COC(=O)c1ccc(N(C)c2ncnc(Nc3ccc(OC)c(OC)c3)n2)cc1,> 4.5
11,COc1cc(Nc2ncnc(Nc3cccc4ncccc34)n2)cc(OC)c1OC,2.4 to 3.5
12,CC(=O)N1CCc2cc(Nc3ncnc(N4CCCc5cc(C)ccc54)n3)ccc21,< 0.4
13,NC(=O)c1ccc(Nc2ncnc(-c3cccnc3NCc3cccs3)n2)cc1,0.4 to 2.4
14,COc1ccc(Nc2ncnc(Nc3ccc4c(c3)CCC4)n2)cc1OC,0.4 to 2.4
15,COc1cc(Nc2ncnc(Nc3ccc(F)c(Cl)c3)n2)cc(OC)c1OC,< 0.4
16,COC(=O)c1ccc(-c2cc(Nc3ncnc(NCCCO)n3)[nH]n2)cc1,> 4.5
17,COc1cc(Nc2ncnc(Nc3cc(C)c(O)cc3C)n2)cc(OC)c1OC,< 0.4
18,O=C(O)c1cccc(Nc2ncnc(-n3c(NCc4ccccc4)nc4ccccc43)n2)c1,< 0.4
19,COc1cc(Nc2ncnc(N[C@@H]3CCCc4ccccc43)n2)cc(OC)c1OC,0.4 to 2.4
20,C=CCNC(=O)c1ccc(-c2cc(Nc3ncnc(Nc4cc(OC)c(OC)c(OC)c4)n3)[nH]n2)cc1,> 4.5
21,COC(=O)c1ccc(-c2cc(Nc3ncnc(NCCN4CCOCC4)n3)[nH]n2)cc1,2.4 to 3.5
22,COc1cc(Nc2ncnc(-n3c(N)nc4ccccc43)n2)cc(OC)c1,> 4.5
23,COc1cc(Nc2ncnc(-n3c(NCc4ccccn4)nc4ccccc43)n2)cc(OC)c1OC,> 4.5

row,Compound,IC50 [µg/mL]
1,CCN(CC)CCOc1cc(Nc2ncnc(-n3c(N)nc4ccccc43)n2)ccc1OC,> 4.5
2,COc1cc(Nc2ncnc(Nc3cccc(C)c3)n2)cc(OC)c1OC,< 0.4
3,CC(C)(C)OC(=O)Nc1ccc(Nc2ncnc(Nc3ccc(OCc4ccccc4)cc3)n2)cc1,> 4.5
4,COc1cc(Nc2ncnc(Nc3ccccc3F)n2)cc(OC)c1OC,< 0.4
5,COc1cc(Nc2ncnc(-n3cc(C)c4ccccc43)n2)cc(OC)c1OC,> 4.5
6,CC(=O)NCc1ccc(Nc2ncnc(Nc3cc(-c4ccco4)n[nH]3)n2)cc1,0.4 to 2.4
7,COc1ccc(Nc2ncnc(N(C)c3ccc(Cl)cc3)n2)cc1OC,< 0.4
8,COc1cc(Nc2ncnc(Nc3ccc4c(c3)Cc3ccccc3-4)n2)cc(OC)c1OC,> 4.5
9,Clc1ccccc1Nc1ncnc(-n2cccc2)n1,> 4.5
10,CN(c1cccc(Cl)c1)c1ncnc(N(C)c2cccc(Cl)c2)n1,0.4 to 2.4
11,CN(c1cccc(Cl)c1)c1ncnc(Nc2cccc(Br)c2)n1,< 0.4
12,Cc1ccc2c(c1)CCCN2c1ncnc(NCc2ccc(C(=O)O)cc2)n1,> 4.5
13,CC(=O)Nc1ccc(Nc2ncnc(N3CCCc4cc(C)ccc43)n2)cc1,< 0.4
14,O=[N+]([O-])c1cccc(Nc2ncnc(-c3cccs3)n2)c1,> 4.5
15,COc1ccc(Nc2ncnc(N(C)c3ccc(S(=O)(=O)O)cc3)n2)cc1OC,> 4.5
16,COc1cc(Nc2ncnc(Cl)n2)cc(OC)c1OC,> 4.5
17,COc1cc(Br)ccc1Nc1nc2ccccc2n1-c1ncnc(Nc2cc(OC)c(OC)c(OC)c2)n1,> 4.5
18,C=CCNc1nc2ccccc2n1-c1ncnc(Nc2cc(OC)c(OC)c(OC)c2)n1,> 4.5
19,COc1cc(Nc2ncnc(-n3c(NCc4nc5ccccc5[nH]4)nc4ccccc43)n2)cc(OC)c1OC,> 4.5
20,COc1cc(Nc2ncnc(Nc3ccc(-c4ccccc4)cc3)n2)cc(OC)c1OC,3.5 to 4.5
21,COc1ccccc1Nc1nc2ccccc2n1-c1ncnc(Nc2cc(OC)c(OC)c(OC)c2)n1,> 4.5
22,COc1ccc(Nc2ncccc2-c2ncnc(Nc3cc(OC)c(OC)c(OC)c3)n2)c(C)c1,> 4.5
23,COc1cc(Nc2ncnc(NC(=O)Cc3ccccc3)n2)cc(OC)c1OC,0.4 to 2.4
